From publication PMC9571290, “Preliminary Structure–Activity Relationship Study of the MMV Pathogen Box Compound MMV675968 (2,4-Diaminoquinazoline) Unveils Novel Inhibitors of Trypanosoma brucei brucei” (Molecules, 2022) come the findings set out here.

Read-outs that look alike come from different tables or passages of the source. Bounds are passed on as bounds.

The subject of series [1] is trypanosome plasma membrane. Briefly: plasma membrane integrity (SYBR Green). It is filed as cell-based, Trypanosoma brucei brucei. Conditions: IC99, IC90, IC50, IC10; up to 120 min. Here is the method: The plasma membrane is the first barrier protecting the cell from the external environment and therefore might represent an important challenge for compounds to exert their inhibitory action. Thus, compounds 7 and 10 were assessed for their ability to induce alterations in cell integrity as previously described with a modification consisting of using an SYBR green assay. The principle of this assay is based on the fact that upon treatment with membrane disruptors, trypanosomes with compromised plasma become fluorescent as a result of SYBR green entry and fixation to the exposed DNA. Practically, in a 96-well microtiter plate, 90 µL of trypanosome suspension (2 × 10^6 cells/mL/well) was preincubated with SYBR Green (2X) (Sigma Aldrich) for 15 min at 37 °C and 5% CO2 in darkness. […] The plate was then incubated at 37 °C on a Magelan Infinite M200 multiwell plate reader (Tecan), and fluorescence was further recorded every 5 min for up to 120 min at λex = 485 and λem = 538 nm. […] The results are expressed as the mean ± SD of two experiments carried out in duplicate after deducting the background signal (wells containing HMI-9 medium) and then used to plot the fluorescence counts versus time (min) graph.

For series [2], the system named is trypanosomes. Briefly: intracellular ROS production (DCFDA). It is filed as cell-based, Trypanosoma brucei brucei. Conditions: 120 min; versus untreated parasites. How it is done: The production of ROS was detected using a 2′,7′–dichlorofluorescein diacetate (DCFDA) probe (Sigma–Aldrich) as described by Rea et al.. […] DCFDA (100 µL, 5 µM) was then added to the parasites, and incubation was pursued for 15 min at 37 °C. Hydrogen peroxide (H2O2 0.1% v/v) was used as a positive control for maximal ROS production, and wells with untreated parasites were included as a negative control. Of note, DCFDA is cleaved by ROS to produce fluorescent 2′,7′-dichlorofluorescein (DCF), of which the fluorescence intensity was measured at λex = 485 nm and λem = 520 nm. Data obtained from duplicate readouts were used to determine the ROS production percentage relative to the positive control (100% Production). % ROS production = (OD Test/OD control(H2O2)) × 100

Series [3] can be described thus: in vitro. Conditions: African green monkey.
The subject of series [4] is bloodstream forms of Trypanosoma brucei brucei. Briefly: resazurin-based antitrypanosomal inhibition assay. It is filed as cell-based. Conditions: Trypanosoma brucei.
A short description of series [5]: ferric ion reducing antioxidant power (FRAP). Conditions: Fe^3+-reducing activity. How it is done:
Iron is one of the vital elements for all parasites, including trypanosomes, as it plays a key role in pathogenesis and the host immune response. Therefore, iron bioavailability reducing agents to the parasite could be potential candidates for drug development against trypanosomiasis. To this end, we determined the capacity of the test compounds to reduce iron from ferric to ferrous status using the method described by Benzie et al.. Briefly, 25 µL of each compound (7 and 10) was added to 25 µL of a solution of Fe^3+ prepared at 1.2 mg/mL in distilled water in a 96-well microplate. The plate was incubated for 15 min at room temperature in darkness, after which 50 µL of ortho-phenanthroline (0.2% in methanol) was added to achieve final compound concentrations ranging from 400 µM to 0.19 µM. Plates were reincubated for 15 min, and the absorbance was measured at 510 nm. Ascorbic acid was used as a positive control and tested at concentrations ranging from 100 to 0.048 μg/mL. The median reducing concentration (RC50) values of compounds were determined through sigmoidal concentration–response curves using GraphPad Prism version 8.0 software.

The mark [6] stands for this setting: Table 4, analogs of MMV675968, solid material, read-out: IC50 ± SD T. b. b.
The mark [7] stands for this setting: Table 4, negative log of IC50 in molar, read-out: pIC50 T. b. b. (converted).

On to `Nc1nc(N)c2cc(CNc3cc(Cl)ccc3Cl)ccc2n1` [Analog 10, 6-(((2,5-dichlorophenyl)amino)methyl)quinazoline-2,4-diamine], for which, in series [1], the “effect on plasma membrane permeability” value is listed as “no impairment or a rather mild effect”. Further, the “change in ROS production” value in series [2] is “no significant change”. The compound further gave a CC50 at 48 h in series [3] of 78.2 ± 0.8 µM. Moreover, the IC50 in series [4] (setting [6]) was 45 ± 5 nM; in series [4] (setting [7]), 45.7 nM. For the same compound, in series [5], the “median reducing concentration (RC50)” value is reported as more than 400 µM.

`COc1ccccc1NCc1ccc2nc(N)nc(N)c2c1` [Analog 7, 6-(((2-methoxyphenyl)amino)methyl)quinazoline-2,4-diamine]: in series [1], the “effect on plasma membrane permeability” value was “no impairment or a rather mild effect”. The “change in ROS production” value in series [2] is “no significant change”. This compound came in with a CC50 at 48 h in series [3] of 24.8 ± 0.87 µM. In addition, the IC50 was 60 ± 8 nM in series [4] (setting [6]) and 60.3 nM in series [4] (setting [7]). Further, the “median reducing concentration (RC50)” value in series [5] came out at 96.37 µM.
